Measured values reported in the supplement of paper PMC10307832.

Legend:
Assay in all cases: relative viability (nuclei count vs DMSO), 5 days (fraction); higher = more cells survive
[1] = compound: CCN(CCO)CCCC(C)Nc1ccnc2cc(Cl)ccc12 [Hydroxychloroquine] + CC(=O)Nc1cccc(-n2c(=O)n(C3CC3)c(=O)c3c(Nc4ccc(I)cc4F)n(C)c(=O)c(C)c32)c1 [Trametinib] (partner 0.02 µM)
Method in brief: (§1)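 A single step with final 0.05% Triton X-100, 1% formaldehyde and 1 ug/ml Hoechst fixed the cells and stained nuclei 5 days after treatment. Lung cancer cell lines in 1536-well plates had been treated by pin tool the day after seeding with one drug alone or a fixed anchor-drug dose plus five library-drug doses (not always all listed) in √10 steps, and nuclei were counted on 4× images. Relative viability is the ratio of nuclei in treated wells to nuclei in vehicle wells, taken as the median of duplicate plates.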

[2] = compound: CCN(CCO)CCCC(C)Nc1ccnc2cc(Cl)ccc12 [Hydroxychloroquine] + C[C@@H](Oc1cc(-c2cnn(C3CCNCC3)c2)cnc1N)c1c(Cl)ccc(F)c1Cl [Crizotinib] (partner 1 µM)
Method in brief: as §1

[3] = compound: CCN(CCO)CCCC(C)Nc1ccnc2cc(Cl)ccc12 [Hydroxychloroquine] + N=C(N)NC(=N)NCCc1ccccc1 [Phenformin] (partner 250 µM)
Method in brief: as §1

[4] = compound: CCN(CCO)CCCC(C)Nc1ccnc2cc(Cl)ccc12 [Hydroxychloroquine] + COc1cccc2cc(-c3nc([C@H]4CC[C@H](C(=O)O)CC4)n4ncnc(N)c34)[nH]c12 [OSI-027] (partner 0.5 µM)
Method in brief: as §1

Row | Cell Line | relative viability ([1]; first compound 0.5 µM) | relative viability ([1]; first compound 1.581 µM) | relative viability ([1]; first compound 5 µM) | relative viability ([1]; first compound 15.81 µM) | relative viability ([1]; first compound 50 µM) | relative viability ([2]; first compound 0.5 µM) | relative viability ([2]; first compound 1.581 µM) | relative viability ([2]; first compound 5 µM) | relative viability ([2]; first compound 15.81 µM) | relative viability ([2]; first compound 50 µM) | relative viability ([3]; first compound 0.5 µM) | relative viability ([3]; first compound 1.581 µM) | relative viability ([3]; first compound 5 µM) | relative viability ([3]; first compound 15.81 µM) | relative viability ([3]; first compound 50 µM) | relative viability ([4]; first compound 0.5 µM) | relative viability ([4]; first compound 1.581 µM) | relative viability ([4]; first compound 5 µM) | relative viability ([4]; first compound 15.81 µM) | relative viability ([4]; first compound 50 µM)
1 | NCI-H2023 | 0.529 | 0.492 | 0.504 | 0.53 | 0.503 | 0.652 | 0.565 | 0.619 | 0.614 | 0.737 | 0.423 | 0.433 | 0.436 | 0.4 | 0.386 | 0.468 | 0.336 | 0.402 | 0.338 | 0.442
2 | NCI-H2085 | 0.7 | 0.527 | 0.619 | 0.518 | 0.53 | 0.904 | 0.783 | 0.826 | 0.753 | 0.847 | 0.762 | 0.509 | 0.688 | 0.727 | 0.692 | 0.788 | 0.557 | 0.625 | 0.693 | 0.821
3 | NCI-H2087 | 0.202 | 0.234 | 0.187 | 0.193 | 0.238 | 1.02 | 0.982 | 1.09 | 0.864 | 1.11 | 0.445 | 0.383 | 0.486 | 0.566 | 0.464 | 0.584 | 0.375 | 0.529 | 0.672 | 0.78
4 | NCI-H2126 | 0.5 | 0.516 | 0.603 | 0.544 | 0.55 | 1.12 | 1.06 | 1.11 | 0.984 | 1.13 | 0.528 | 0.534 | 0.56 | 0.521 | 0.506 | 0.625 | 0.631 | 0.763 | 0.606 | 0.702
5 | NCI-H2170 | 0.867 | 0.852 | 0.933 | 1.05 | 0.896 | 1.24 | 1.24 | 1.35 | 1.27 | 1.57 | 0.427 | 0.413 | 0.435 | 0.427 | 0.417 | 0.63 | 0.776 | 0.685 | 0.702 | 0.806
6 | NCI-H2228 | 0.322 | 0.421 | 0.654 | 0.584 | 0.365 | 0.461 | 0.46 | 0.46 | 0.491 | 0.427 | 0.265 | 0.342 | 0.348 | 0.407 | 0.292 | 0.617 | 0.569 | 0.634 | 0.548 | 0.669
7 | NCI-H2347 | 0.293 | 0.248 | 0.272 | 0.281 | 0.325 | 0.887 | 0.588 | 0.544 | 0.728 | 0.85 | 0.469 | 0.466 | 0.446 | 0.329 | 0.377 | 0.528 | 0.356 | 0.387 | 0.322 | 0.336
8 | NCI-H2405 | 0.668 | 0.677 | 0.585 | 0.62 | 0.615 | 0.856 | 0.813 | 0.867 | 0.88 | 0.864 | 0.417 | 0.352 | 0.368 | 0.384 | 0.398 | 0.626 | 0.55 | 0.652 | 0.627 | 0.658
